Paper PMC8426238, “Synthesis and preclinical evaluation of [^11C]MTP38 as a novel PET ligand for phosphodiesterase 7 in the brain” (European Journal of Nuclear Medicine and Molecular Imaging, 2021)
“And” between values parts separate entries of the source, which are not always exact repeats. Equal values may be shown once.

Experiments:
Adenosine A3 = target: T1, Adenosine A3 (Homo sapiens, UniProt P0DMS8); test: off-target screen panel; assay type: binding; settings: Human recombinant, [^125I]AB-MECA
T1 construct: purchased Eurofins Panlabs Discovery Services (Taiwan)

Adrenergic α1A = target: T2, Adrenergic α1A (Rattus norvegicus, UniProt P43140); test: off-target screen panel; assay type: binding; settings: Rat submaxillary gland, [^3H]Prazosin
T2 construct: purchased Eurofins Panlabs Discovery Services (Taiwan)

PDE7 = test: In vitro autoradiography of rat brain sections with [^11C]MTP38; assay type: binding, Sprague-Dawley rats; settings: [^11C]MTP38 2 nM, unlabeled MTP38 10 μM, MTP-X 4 μM, MT-3014 40 nM
Procedure: In vitro autoradiography was performed using 20-μm-thick fresh-frozen brain sections derived from Sprague-Dawley rats and rhesus monkeys. The sections were preincubated for 10 min in 50 mM Tris-HCl buffer (pH 7.4) at room temperature. These samples were then incubated for 60 min at room temperature in fresh buffer containing [^11C]MTP38 (2 nM) with or without unlabeled MTP38 (10 μM), MTP-X (4 μM), or MT-3014 (40 nM). The concentrations of MTP-X and MT-3014 were more than 400-fold of reported IC50 values of these agents. After the incubation, the brain sections were immersed twice in cold buffer for 3 min, dipped in cold distilled water for 10 s, and dried with warm airflow. Then the sections were contacted with imaging plates (BAS-MS2025, Fujifilm, Tokyo, Japan) for 60 min. The imaging plates were scanned with an imaging plate reader (BAS5000, Fujifilm, Tokyo, Japan), and the images were analyzed with the MultiGuage software (ver. 3.0, Fujifilm, Tokyo, Japan).

Nicotinic Acetylcholine = test: off-target screen panel; assay type: binding; settings: Human IMR-32 cells, [^125I]Epibatidine
Estrogen ERα = target: T3, Estrogen ERα (Homo sapiens, UniProt P03372); test: off-target screen panel; assay type: binding; settings: Human recombinant, [^3H]Estradiol
T3 construct: purchased Eurofins Panlabs Discovery Services (Taiwan)

Adrenergic β1 = target: T4, Adrenergic β1 (Homo sapiens, UniProt P08588); test: off-target screen panel; assay type: binding; settings: Human recombinant, [^125I]Cyanopindolol
T4 construct: purchased Eurofins Panlabs Discovery Services (Taiwan)

Histamine H3 = target: T5, Histamine H3 (Homo sapiens, UniProt Q9Y5N1); test: off-target screen panel; assay type: binding; settings: Human recombinant, [^3H]N-α-Methylhistamine
T5 construct: purchased Eurofins Panlabs Discovery Services (Taiwan)

Muscarinic M2 = target: T6, Muscarinic M2 (Homo sapiens, UniProt P08172); test: off-target screen panel; assay type: binding; settings: Human recombinant, [^3H]N-Methylscopolamine
T6 construct: purchased Eurofins Panlabs Discovery Services (Taiwan)

PDE9A2 = target: T7, PDE9A2 (Homo sapiens, UniProt O76083); test: PDE isozyme inhibition screen panel (Eurofins Panlabs); assay type: biochemical; settings: 1 μM of MTP38; human recombinant; read-out: Percent inhibition
T7 construct: purchased Eurofins Panlabs Discovery Services (Taiwan)
Procedure: (§1) In vitro inhibitory effects of MTP38 on 12 PDE isozymes (PDE1A, 2A, 3A, 4B1, 5A, 6, 7A, 7B, 8A1, 9A2, 10A2, and 11A4) were determined using a commercial screen panel at Eurofins Panlabs Discovery Services (Taiwan). The enzyme source was bovine retinal rod outer segments for PDE6 or human recombinants for the others. The inhibition percentage at 1 μM or half-maximal inhibitory concentration (IC50) value was calculated. All assays were conducted in duplicate. For IC50 determination, three independent runs were performed.

PDE1A = target: T8, PDE1A (Homo sapiens, UniProt P54750); test: as above; assay type: biochemical; settings: 1 μM of MTP38; human recombinant; read-out: Percent inhibition
T8 construct: purchased Eurofins Panlabs Discovery Services (Taiwan)
Procedure: as §1

PDE5A = target: T9, PDE5A (Homo sapiens, UniProt O76074); test: as above; assay type: biochemical; settings: 1 μM of MTP38; human recombinant; read-out: Percent inhibition
T9 construct: purchased Eurofins Panlabs Discovery Services (Taiwan)
Procedure: as §1

PDE7A = target: T10, PDE7A (Homo sapiens, UniProt Q13946); test: as above; assay type: biochemical; settings: human recombinant; geometric mean of three independent experiments
T10 construct: purchased Eurofins Panlabs Discovery Services (Taiwan)
Procedure: as §1

PDE8A1 = target: T11, PDE8A1 (Homo sapiens, UniProt O60658); test: as above; assay type: biochemical; settings: 1 μM of MTP38; human recombinant; read-out: Percent inhibition
T11 construct: purchased Eurofins Panlabs Discovery Services (Taiwan)
Procedure: as §1

PDE6 = target: T12, PDE6 (Bos taurus, UniProt P11541+P23439); test: as above; assay type: biochemical; settings: 1 μM of MTP38; bovine retinal rod outer segments; read-out: Percent inhibition
T12 construct: The enzyme source was bovine retinal rod outer segments for PDE6; tissue Eurofins Panlabs Discovery Services (Taiwan); host or cells: bovine retinal rod outer segments
Procedure: as §1

PDE2A = target: T13, PDE2A (Homo sapiens, UniProt O00408); test: as above; assay type: biochemical; settings: human recombinant; geometric mean of three independent experiments
T13 construct: purchased Eurofins Panlabs Discovery Services (Taiwan)
Procedure: as §1

PDE7B = target: T14, PDE7B (Homo sapiens, UniProt Q9NP56); test: as above; assay type: biochemical
T14 construct: purchased Eurofins Panlabs Discovery Services (Taiwan)
Procedure: as §1

PDE3A = target: T15, PDE3A (Homo sapiens, UniProt Q14432); test: as above; assay type: biochemical; settings: 1 μM of MTP38; human recombinant; read-out: Percent inhibition
T15 construct: purchased Eurofins Panlabs Discovery Services (Taiwan)
Procedure: as §1

PDE11A4 = target: T16, PDE11A4 (Homo sapiens, UniProt Q9HCR9); test: as above; assay type: biochemical; settings: 1 μM of MTP38; human recombinant; read-out: Percent inhibition
T16 construct: purchased Eurofins Panlabs Discovery Services (Taiwan)
Procedure: as §1

Opiate κ (OP2, KOP) = target: T17, Opiate κ (OP2, KOP) (Homo sapiens, UniProt P41145); test: off-target screen panel; assay type: binding; settings: Human recombinant, [^3H]Diprenorphine
T17 construct: purchased Eurofins Panlabs Discovery Services (Taiwan)

Adrenergic β2 = target: T18, Adrenergic β2 (Homo sapiens, UniProt P07550); test: off-target screen panel; assay type: binding; settings: Human recombinant, [^3H]CGP-12177
T18 construct: purchased Eurofins Panlabs Discovery Services (Taiwan)

Histamine H1 = target: T19, Histamine H1 (Homo sapiens, UniProt P35367); test: off-target screen panel; assay type: binding; settings: Human recombinant, [^3H]Pyrilamine
T19 construct: purchased Eurofins Panlabs Discovery Services (Taiwan)

Neuropeptide Y Y2 = target: T20, Neuropeptide Y Y2 (Homo sapiens, UniProt P49146); test: off-target screen panel; assay type: binding; settings: Human KAN-TS cells, [^125I]Peptide YY
T20 construct: purchased Eurofins Panlabs Discovery Services (Taiwan)

Prostanoid EP4 = target: T21, Prostanoid EP4 (Homo sapiens, UniProt P35408); test: off-target screen panel; assay type: binding; settings: Human recombinant, [^3H]Prostaglandin E2 (PGE2)
T21 construct: purchased Eurofins Panlabs Discovery Services (Taiwan)

Purinergic P2X = test: off-target screen panel; assay type: binding; settings: Rabbit urinary bladder, [^3H]α, β-Methylene-ATP

T13 sequence (O00408 whole entry): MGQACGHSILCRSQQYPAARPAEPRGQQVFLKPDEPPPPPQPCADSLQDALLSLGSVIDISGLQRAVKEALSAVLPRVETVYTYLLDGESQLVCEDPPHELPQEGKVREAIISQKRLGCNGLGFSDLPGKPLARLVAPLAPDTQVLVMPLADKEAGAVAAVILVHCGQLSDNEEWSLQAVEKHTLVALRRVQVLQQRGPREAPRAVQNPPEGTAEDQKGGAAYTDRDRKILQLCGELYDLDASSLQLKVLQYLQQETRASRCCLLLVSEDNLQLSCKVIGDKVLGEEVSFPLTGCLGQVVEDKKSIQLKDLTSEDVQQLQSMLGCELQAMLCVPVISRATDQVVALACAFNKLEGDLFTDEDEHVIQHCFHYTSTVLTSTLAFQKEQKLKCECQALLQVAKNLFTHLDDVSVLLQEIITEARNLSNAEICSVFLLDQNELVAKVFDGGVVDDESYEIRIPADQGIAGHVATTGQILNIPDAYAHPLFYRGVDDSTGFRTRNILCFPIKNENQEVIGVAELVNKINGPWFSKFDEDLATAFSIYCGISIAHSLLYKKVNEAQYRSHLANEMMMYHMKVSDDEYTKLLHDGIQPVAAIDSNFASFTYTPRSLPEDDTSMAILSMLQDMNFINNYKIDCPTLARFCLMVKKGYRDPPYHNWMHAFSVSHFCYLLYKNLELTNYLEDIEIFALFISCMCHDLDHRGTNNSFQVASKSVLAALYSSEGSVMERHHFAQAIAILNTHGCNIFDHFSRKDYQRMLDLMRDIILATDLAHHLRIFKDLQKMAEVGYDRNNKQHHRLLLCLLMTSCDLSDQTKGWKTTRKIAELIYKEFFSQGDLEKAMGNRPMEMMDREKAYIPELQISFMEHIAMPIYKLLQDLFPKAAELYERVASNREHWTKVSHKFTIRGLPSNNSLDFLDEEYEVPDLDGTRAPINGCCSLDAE
T14 sequence (Q9NP56 whole entry): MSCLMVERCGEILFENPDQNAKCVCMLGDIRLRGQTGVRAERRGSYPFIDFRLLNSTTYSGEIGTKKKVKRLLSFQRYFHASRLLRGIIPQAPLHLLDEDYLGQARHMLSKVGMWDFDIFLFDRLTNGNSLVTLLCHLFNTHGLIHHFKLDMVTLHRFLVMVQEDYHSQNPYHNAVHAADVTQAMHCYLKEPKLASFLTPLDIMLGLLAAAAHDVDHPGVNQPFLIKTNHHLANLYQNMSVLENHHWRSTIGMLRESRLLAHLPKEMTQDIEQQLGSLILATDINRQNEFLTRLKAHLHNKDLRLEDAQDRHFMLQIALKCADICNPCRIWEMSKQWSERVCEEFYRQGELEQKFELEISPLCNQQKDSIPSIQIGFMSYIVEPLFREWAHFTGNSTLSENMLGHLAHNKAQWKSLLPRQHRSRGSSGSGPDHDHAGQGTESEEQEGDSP
T1 sequence (P0DMS8 whole entry): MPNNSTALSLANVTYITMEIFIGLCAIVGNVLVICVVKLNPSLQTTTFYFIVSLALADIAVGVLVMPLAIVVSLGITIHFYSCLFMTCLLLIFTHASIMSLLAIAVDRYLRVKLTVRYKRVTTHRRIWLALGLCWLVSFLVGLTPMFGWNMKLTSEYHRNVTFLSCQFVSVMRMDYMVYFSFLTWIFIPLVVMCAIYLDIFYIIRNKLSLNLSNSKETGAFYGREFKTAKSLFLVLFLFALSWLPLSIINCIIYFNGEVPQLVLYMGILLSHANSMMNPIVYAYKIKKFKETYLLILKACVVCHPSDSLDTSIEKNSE
T18 sequence (P07550 whole entry): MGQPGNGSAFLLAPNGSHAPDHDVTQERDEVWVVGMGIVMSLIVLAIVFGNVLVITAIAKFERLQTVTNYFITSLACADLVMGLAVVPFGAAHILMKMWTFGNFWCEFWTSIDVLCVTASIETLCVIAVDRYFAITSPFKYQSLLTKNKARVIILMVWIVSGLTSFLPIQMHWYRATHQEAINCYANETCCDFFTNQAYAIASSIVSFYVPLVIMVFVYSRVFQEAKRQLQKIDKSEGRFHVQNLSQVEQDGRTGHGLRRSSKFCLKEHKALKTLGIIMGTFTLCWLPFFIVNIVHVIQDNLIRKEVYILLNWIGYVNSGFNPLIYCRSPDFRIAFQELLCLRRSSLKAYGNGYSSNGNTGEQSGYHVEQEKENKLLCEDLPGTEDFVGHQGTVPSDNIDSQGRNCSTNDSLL
T19 sequence (P35367 whole entry): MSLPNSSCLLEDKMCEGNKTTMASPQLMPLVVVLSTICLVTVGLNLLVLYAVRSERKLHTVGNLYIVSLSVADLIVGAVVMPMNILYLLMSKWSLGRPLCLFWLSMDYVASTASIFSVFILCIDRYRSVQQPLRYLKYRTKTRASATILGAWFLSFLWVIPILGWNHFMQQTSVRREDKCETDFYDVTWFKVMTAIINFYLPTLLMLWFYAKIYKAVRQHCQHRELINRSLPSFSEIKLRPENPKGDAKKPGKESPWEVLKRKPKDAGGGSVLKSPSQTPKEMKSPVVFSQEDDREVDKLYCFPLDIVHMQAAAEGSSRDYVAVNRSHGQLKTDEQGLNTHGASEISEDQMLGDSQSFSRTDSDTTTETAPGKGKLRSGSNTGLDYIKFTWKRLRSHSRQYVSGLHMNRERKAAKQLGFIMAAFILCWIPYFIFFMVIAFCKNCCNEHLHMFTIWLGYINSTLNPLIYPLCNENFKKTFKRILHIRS
T12 sequence (P11541 2-856 limits assumed): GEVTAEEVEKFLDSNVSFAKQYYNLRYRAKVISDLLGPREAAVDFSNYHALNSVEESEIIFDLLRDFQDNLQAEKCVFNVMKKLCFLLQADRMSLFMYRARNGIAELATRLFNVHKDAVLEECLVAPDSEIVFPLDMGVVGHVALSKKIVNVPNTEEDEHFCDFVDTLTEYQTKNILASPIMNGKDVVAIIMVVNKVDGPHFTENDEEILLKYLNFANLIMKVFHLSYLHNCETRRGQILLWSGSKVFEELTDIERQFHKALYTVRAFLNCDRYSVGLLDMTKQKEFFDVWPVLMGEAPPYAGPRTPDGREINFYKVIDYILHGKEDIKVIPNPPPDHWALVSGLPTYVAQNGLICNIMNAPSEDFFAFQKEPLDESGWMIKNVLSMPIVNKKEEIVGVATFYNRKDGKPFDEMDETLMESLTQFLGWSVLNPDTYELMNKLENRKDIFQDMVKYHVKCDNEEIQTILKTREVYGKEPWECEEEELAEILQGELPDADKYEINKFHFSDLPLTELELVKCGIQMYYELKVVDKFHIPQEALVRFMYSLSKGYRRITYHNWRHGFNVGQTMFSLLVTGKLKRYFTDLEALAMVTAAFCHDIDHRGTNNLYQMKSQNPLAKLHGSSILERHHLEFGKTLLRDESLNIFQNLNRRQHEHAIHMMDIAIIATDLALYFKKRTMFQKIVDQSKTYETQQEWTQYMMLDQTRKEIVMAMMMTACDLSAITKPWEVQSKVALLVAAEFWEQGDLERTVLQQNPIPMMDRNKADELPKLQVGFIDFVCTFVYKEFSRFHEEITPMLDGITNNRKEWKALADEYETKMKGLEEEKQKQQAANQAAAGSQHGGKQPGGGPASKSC
T12 sequence (P23439 2-850 limits assumed): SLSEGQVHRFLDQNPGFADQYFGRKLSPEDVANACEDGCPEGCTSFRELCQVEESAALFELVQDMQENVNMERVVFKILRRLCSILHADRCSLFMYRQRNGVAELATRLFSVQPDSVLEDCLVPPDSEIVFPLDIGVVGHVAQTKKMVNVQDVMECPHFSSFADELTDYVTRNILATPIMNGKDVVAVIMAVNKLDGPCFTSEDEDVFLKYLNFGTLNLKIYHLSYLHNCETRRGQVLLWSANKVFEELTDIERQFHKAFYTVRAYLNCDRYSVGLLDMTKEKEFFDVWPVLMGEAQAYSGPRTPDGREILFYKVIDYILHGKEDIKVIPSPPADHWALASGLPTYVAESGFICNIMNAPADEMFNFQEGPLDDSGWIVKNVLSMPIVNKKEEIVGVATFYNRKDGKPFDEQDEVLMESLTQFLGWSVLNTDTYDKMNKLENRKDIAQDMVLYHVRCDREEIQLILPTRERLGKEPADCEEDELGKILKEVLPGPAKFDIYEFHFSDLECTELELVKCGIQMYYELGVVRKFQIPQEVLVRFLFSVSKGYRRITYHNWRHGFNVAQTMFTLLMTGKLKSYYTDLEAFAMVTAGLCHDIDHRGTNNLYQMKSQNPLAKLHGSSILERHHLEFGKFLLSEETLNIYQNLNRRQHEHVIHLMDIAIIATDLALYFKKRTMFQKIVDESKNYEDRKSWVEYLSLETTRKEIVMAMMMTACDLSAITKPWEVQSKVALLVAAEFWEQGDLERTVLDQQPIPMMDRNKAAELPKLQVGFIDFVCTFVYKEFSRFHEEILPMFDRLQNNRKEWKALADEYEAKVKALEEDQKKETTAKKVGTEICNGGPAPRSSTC
T21 sequence (P35408 whole entry): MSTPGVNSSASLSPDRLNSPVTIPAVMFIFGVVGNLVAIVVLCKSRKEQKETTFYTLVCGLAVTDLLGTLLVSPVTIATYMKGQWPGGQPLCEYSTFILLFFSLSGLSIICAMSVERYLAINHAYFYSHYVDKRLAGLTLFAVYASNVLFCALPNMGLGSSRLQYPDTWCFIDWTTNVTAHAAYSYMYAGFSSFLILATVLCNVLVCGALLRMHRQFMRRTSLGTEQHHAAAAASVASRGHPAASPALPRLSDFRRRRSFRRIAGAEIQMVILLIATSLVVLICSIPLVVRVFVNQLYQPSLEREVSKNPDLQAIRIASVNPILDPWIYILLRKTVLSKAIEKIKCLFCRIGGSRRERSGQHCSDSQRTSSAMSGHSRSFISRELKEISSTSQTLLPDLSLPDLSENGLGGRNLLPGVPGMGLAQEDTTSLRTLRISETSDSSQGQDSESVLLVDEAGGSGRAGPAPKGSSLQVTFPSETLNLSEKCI

C[C@@H]1CC[C@H](C)N(c2nnc3c(N)ncc(C#N)n23)C1 (relative stereo) [MTP38, 8-amino-3-(2S*,5R*-dimethyl-1-piperidyl)-[1,2,4]triazolo[4,3-a]pyrazine-5-carbonitrile]
inhibition at 1 µM (Adenosine A3): 10%
inhibition at 1 µM (Adrenergic α1A): 8%
effect of blocker on striatal radioactivity of [^11C]MTP38 (PDE7): reduced the striatal radioactivity
Inhibition (%) at 1 μM (Nicotinic Acetylcholine): -8%
inhibition at 1 µM (Estrogen ERα): -1%
inhibition at 1 µM (Adrenergic β1): -2%
inhibition at 1 µM (Histamine H3): 9%
inhibition at 1 µM (Muscarinic M2): -9%
inhibition at 1 µM (PDE9A2): < 50%
inhibition at 1 µM (PDE1A): < 50%
inhibition at 1 µM (PDE5A): < 50%
IC50 (PDE7A): 9.81 nM
inhibition at 1 µM (PDE8A1): < 50%
inhibition at 1 µM (PDE6): < 50%
IC50 (PDE2A): > 100 nM and 114 nM
Ki (PDE7B; from IC50 1.21 nM, [S] 100 nM, Km 30–70 nM, read-out: Ki estimated by Cheng-Prusoff equation): 0.28 to 0.5 nM
IC50 (PDE7B; human recombinant, geometric mean of three independent experiments): 1.21 nM
inhibition at 1 µM (PDE3A): < 50%
inhibition at 1 µM (PDE11A4): < 50%
inhibition at 1 µM (Opiate κ (OP2, KOP)): 9%
inhibition at 1 µM (Adrenergic β2): -14%
inhibition at 1 µM (Histamine H1): -20%
inhibition at 1 µM (Neuropeptide Y Y2): 6%
inhibition at 1 µM (Prostanoid EP4): 8%
Inhibition (%) at 1 μM (Purinergic P2X): -3%
